Patent publication US9232804B2, “Compositions and methods for sterilizing bioscaffolds” (KNU University-Industry Cooperation Foundation, priority 2012, dated 2016)

Legend:
porcine liver scaffolds = assay: Sterilization effect on scaffolds according to culture time (DMEM + 10% FBS, Columbia blood agar)
Method: First, the porcine liver scaffolds prepared in Example 1 were divided into two groups: an experimental group in which the scaffolds were immersed in the slightly acidic electrolyzed water prepared in Example 2 to be sterilized for […], 60 minutes, 90 minutes, and 120 minutes, respectively; and a control group in which the scaffolds were treated with PBS, peracetic acid (PAA) solution (Sigma-Aldrich, St Louis, Mo., USA), and 70% ethanol solution (Daejung Chemicals and Metals, Seoul, Korea), instead of the slightly acidic electrolyzed water. The slightly acidic electrolyzed water was changed every 15 minutes to be the best fit for sterilization of the porcine liver scaffolds, and the sterilized porcine liver scaffolds were washed with PBS once.
The porcine liver scaffolds of the experimental group and the control group treated by the method described in the above section 3-1 were incubated in Dulbecco's Modified Eagle's Medium (DMEM; Invitrogen, Carlsbad, Calif., USA) supplemented with 10% fetal bovine serum (FBS, Hyclone, Logan, Utah, USA) at 37° C. and on Columbia blood agar medium (Fluka Chemie GmbH) for 96 hours and then checked periodically for signs of infection. In the event of infection, the discoloration and turbidity of medium increases, and the growth of cell colonies is observed on blood agar medium.
In Table 2, (−) represents that no symptoms of infection were observed; (+) represents that symptoms of infection were observed; (x) represents that symptoms of infection were observed before observation time; native liver, decellularized liver, and PBS-treated liver were used as positive controls; and medium without scaffolds was used as the negative control.

[1] = Glycosaminoglycan content, dimethyl methylene blue dye-binding assay (Blyscan kit); parameters: species or system porcine; conditions: for content of glycosaminoglycans, % of that in untreated and decellularized scaffolds: relative to untreated and decellularized scaffolds; for content of glycosaminoglycans, % of that in untreated scaffolds: relative to untreated scaffolds
Method: To evaluate the effects of the slightly acidic electrolyzed water of the present invention on the content of glycosaminoglycans, the content of glycosaminoglycans in decellularized liver (untreated scaffolds), scaffolds treated with PBS, and scaffolds treated with the slightly acidic electrolyzed water of the present invention were determined using a dimethyl methylene blue dye-binding assay kit (Blyscan kit; Biocolor Ltd) according to the manufacturer's instructions. First, 5 mg of lyophilized sample was homogenized and solubilized. A 100 μL aliquot from each sample lysate was added to 1 mL of dimethyl methylene blue solution and agitated on a shaker at 25° C. for 30 minutes. The resulting solutions were then centrifuged at 10,000×g for 10 minutes to collect the GAG dye complex, and the supernatants were discarded. The remaining pellet was suspended in 1 mL of the provided dissociation reagent, and the absorbance was measured at 655 nm. Chondroitin sulfate provided in the kit was used as a standard of glycosaminoglycans.

[2] = tested on: collagen in porcine liver scaffolds; assay: Collagen content, Sircol collagen dye-binding assay; conditions: relative to native liver
Method: To evaluate the effects of the slightly acidic electrolyzed water of the present invention on the content of collagen, the total collagen levels in native liver, decellularized scaffolds (untreated), scaffolds treated with PBS, PAA, or ethanol, and scaffolds treated with the slightly acidic electrolyzed water of the present invention were determined using a Sircol collagen dye-binding assay kit (Biocolor Ltd.) according to the manufacturer's instructions.
In more detail, lyophilized samples of native porcine liver slices, scaffolds decellularized by the method of Example 1, porcine liver scaffolds treated with PAA, PBS, ethanol, and slightly acidic electrolyzed water, respectively, were prepared. Then, total acid pepsin-soluble collagen was obtained after incubation in 0.5 M acetic acid containing 0.1 mg/ml pepsin. A 100 μL aliquot of acid neutralizing reagent was added to the acid-pepsin extract. Then, the extract was centrifuged after an overnight incubation at 4° C. Then, 1 mL Sircol dye reagent was added to the pellet and incubated at 25° C. for 30 minutes. After centrifugation, the pellet was washed with acid-salt wash reagent and suspended in 1 mL of alkaline reagent. Then, the absorbance was measured at 540 nm.

porcine skin fibroblasts = assay: Cytotoxicity test (MTT) with conditioned medium from sterilized scaffolds; type: cell-based; conditions: conditioned medium from treated scaffolds
Method: Conditioned cell culture media were prepared from scaffolds treated with the slightly acidic electrolyzed water of the present invention. In brief, serum-free DMEM cell culture medium was incubated overnight with each SAEW-treated scaffold at a concentration of 0.2 g/ml media at 37° C. in a shaker at 70 rpm/min. Cell culture media without scaffolds were prepared by the same method as above to provide unconditioned controls. After incubation, the scaffolds were removed and the medium was filtered through a 0.4 μm filter to prepare culture medium containing soluble factors released from extracellular matrix.
The medium in which fibroblasts were incubated was aspirated, followed by the addition of conditioned or unconditioned culture medium containing 10% FBS and 1% penicillin-streptomycin (Gibco, Grand Island, N.Y., USA) to the well with attached fibroblasts, and the plate was incubated 37° C. in 5% CO2 atmosphere for 24 hours and 48 hours (the culture medium was changed every 24 hours).

porcine fibroblasts [3] = assay: Ki-67 immunostaining of fibroblasts in conditioned medium; type: cell-based; conditions: conditioned medium from treated scaffolds
Method: Conditioned and control media were prepared by the method described in Example 6-1, and about 5000 porcine fibroblasts were cultured on gelatin-coated 4-well plates for 24 hours. Then, the medium was switched to conditioned or control medium. The medium was changed every 24 hours. The proliferation potential of the soluble factors eluted from the scaffolds was checked after incubation for 24 hour and 48 hours. Cells were immunostained using anti-Ki-67 antibody (Abcam, Cambridge, UK). Texas Red goat anti-rabbit IgG (Invitrogen) was used as a secondary antibody. Nuclei were counterstained using a mounting medium containing DAPI. The percentage of Ki-67 positive cells was calculated as the ratio of average positive Ki-67 cells relative to 250 DAPI-stained cells.

porcine fibroblasts [4] = assay: MTT cell attachment assay on sterilized scaffolds; conditions: incubated for 3 hours to attach, viable for 16 hours
Method: Then, a 100 μL aliquot of DMEM in which porcine fibroblasts were suspended was added to each scaffold disc such that a total of about 50,000 fibroblasts were seeded on the plates. Then, the plate was incubated at 37° C. in 5% CO2 atmosphere for 3 hours to allow the fibroblasts to attach to scaffold substrates. The scaffold substrates were carefully transferred to another well such that the cells attached to the scaffold would remain undisturbed. Then, the plate was incubated at 37° C. in 5% CO2 atmosphere for 12 hours. Then, 10 μL of MTT solution (3-[4,5-dimethylthiazol-2yl]-2,5-diphenyltetrazolium bromide; 5 mg/ml, Sigma Aldrich) dissolved in PBS was added to each well and incubated at 37° C. in 5% CO2 atmosphere for 5 hours. Then, the media were removed and 200 μL of dimethyl sulfoxide (DMSO) was added to each well to dissolve the formazan by pipetting. After incubation for 10 minutes, 100 μL of solutions from the respective substrate wells were pipetted into another 96-well plate. Finally, the absorbance of the samples was determined using a spectrophotometer with a test wavelength of 570 nm and a reference wavelength of 630 nm.

[5] = tested on: DNA in porcine liver scaffolds; assay: DNA content of treated scaffolds (removal of immunogenic antigens); conditions: relative to untreated scaffolds
Method: First, lyophilized samples of native porcine liver slices, scaffolds decellularized by the method of Example 1, porcine liver scaffolds treated with 0.1% peracetic acid solution (PAA; Sigma-Aldrich, St Louis, Mo., USA), PBS, 70% ethanol (Daejung Chemicals and Metals, Seoul, Korea), and slightly acidic electrolyzed water were prepared. Then, DNA was extracted from the lyophilized samples using the DNeasy Blood and Tissue Kit (Qiagen, Hilden, Germany).

SMILES	symptoms of infection (porcine liver scaffolds; Columbia blood agar, 6 hour)	symptoms of infection (porcine liver scaffolds; Columbia blood agar, 24 hour)	symptoms of infection (porcine liver scaffolds; Columbia blood agar, 36 hour)	symptoms of infection (porcine liver scaffolds; Columbia blood agar, 48 hour)	symptoms of infection (porcine liver scaffolds; Columbia blood agar, 60 hour)	symptoms of infection (porcine liver scaffolds; DMEM + 10% FBS, 6 hour)	symptoms of infection (porcine liver scaffolds; DMEM + 10% FBS, 24 hour)	symptoms of infection (porcine liver scaffolds; DMEM + 10% FBS, 36 hour)	symptoms of infection (porcine liver scaffolds; DMEM + 10% FBS, 48 hour)	symptoms of infection (porcine liver scaffolds; DMEM + 10% FBS, 60 hour)	symptoms of infection (porcine liver scaffolds; DMEM + 10% FBS, 72 hour)	content of glycosaminoglycans, % of that in untreated and decellularized scaffolds [1] [%]	content of glycosaminoglycans, % of that in untreated scaffolds [1] [%]	proliferation rate of fibroblasts compared to unconditioned medium (porcine skin fibroblasts; incubation for 24 hours) [%]	proliferation rate of fibroblasts compared to unconditioned medium (porcine skin fibroblasts; incubation for 48 hours) [%]	percentage of Ki-67 positive cells compared to the control group (porcine fibroblasts [3])	seeded fibroblasts attached to scaffolds and remaining viable (porcine fibroblasts [4]) [%]	other results
CCO [Ethanol, ethanol]	−	−	−	−	+	−	−	−	−	−	+	64.16±1.92	49.1±1.47	109.22±5.58	113.95±6.67	no significant difference	64.86±3.48	content of collagen, % of that in native liver [2]: 87.54±4.07%
CC(=O)OO [PAA, peracetic acid]	−	−	−	−	−	−	−	−	−	−	−	56±1.04	43±0.80	119.18±5.6	127.43±6.68	no significant difference	71.50±1.95	symptoms of infection (porcine liver scaffolds; Columbia blood agar, 72 hour): −; symptoms of infection (porcine liver scaffolds; Columbia blood agar, 96 hour): −; symptoms of infection (porcine liver scaffolds; DMEM + 10% FBS, 96 hour): −; efficiency for removing the DNA content [5]: 93.13±2.82%
